# Laboratory results published in patent US8426447B2, “Spiro-tricyclic ring compounds as beta-secretase modulators and methods of use” (Amgen Inc., priority 2008, dated 2013).
# Assays:
# [1] = molecular target: T1, BACE1 (Homo sapiens, UniProt P56817); test: In Vitro BACE Cell-based Assay (HEK cell assay): Aβ40 in conditioned medium of cells stably expressing Amyloid Precursor Protein, sandwich ELISA
# Summary of the method: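 First, APP-stable cells grow 24 h at 37° C., 5% CO2. Next, test compounds are added for 24 h (10 doses, 0.1% DMSO). Finally, medium Aβ40 is determined by pAb40/6E10 sandwich ELISA with Europium TRF, and IC50 is calculated.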
# [2] = molecular target: T1, BACE1; test: In Vitro Enzymatic BACE FRET (Fluorescence Resonance Energy Transfer) Assay; type: biochemical
# Summary of the method: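 One-hour incubation initiated by 50 nM quenched FRET peptide spanning the BACE cleavage site, in 0.05 M acetate (pH 4.2), 100 uM genapol, 10% DMSO final. Tris addition neutralizes pH to end the reaction before fluorescence measurement.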
# [3] = Table III, IC50's in uM ranges, read-out: HEK cell assay
# [4] = Table III, IC50's in uM ranges, read-out: BACE1 FRET assay
# [5] = Table IV, class symbols, read-out: HEK cell assay
# [6] = Table IV, class symbols, read-out: BACE1 FRET assay
# [7] = HEK cell-based assay, Aβ40 in conditioned medium, IC50 class symbols, read-out: HEK cell assay
# [8] = in vitro BACE FRET enzyme assay, IC50 class symbols, read-out: BACE1 FRET assay
# [9] = Table 1, Aβ40, 24 h incubation, read-out: HEK cell assay
# [10] = Table 1, read-out: BACE1 FRET assay
# [11] = HEK cells, read-out: HEK cell assay
# T1 sequence (P56817 46-501, species assumed): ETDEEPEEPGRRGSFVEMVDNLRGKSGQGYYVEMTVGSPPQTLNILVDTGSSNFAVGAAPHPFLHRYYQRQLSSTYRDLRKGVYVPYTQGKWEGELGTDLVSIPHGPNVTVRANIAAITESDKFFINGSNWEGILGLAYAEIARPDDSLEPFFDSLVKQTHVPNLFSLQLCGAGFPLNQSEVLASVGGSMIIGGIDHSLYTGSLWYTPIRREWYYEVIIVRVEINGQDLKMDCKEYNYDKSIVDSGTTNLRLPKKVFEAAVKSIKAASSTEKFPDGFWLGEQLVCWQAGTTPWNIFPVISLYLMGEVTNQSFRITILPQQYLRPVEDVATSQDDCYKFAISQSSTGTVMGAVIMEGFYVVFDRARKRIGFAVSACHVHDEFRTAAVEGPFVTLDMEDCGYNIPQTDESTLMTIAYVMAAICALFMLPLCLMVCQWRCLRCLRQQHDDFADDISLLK
smiles,measurement,setting,value
CC(C)(C)COc1ccc2c(c1)[C@]1(COC(N)=N1)c1cc(-c3ccnnc3)ccc1O2 [compound 145],IC50,[1]; [3],0.1 to 1 µM
same,IC50,[2]; [4],< 0.1 µM
NC1=N[C@]2(CO1)c1ccccc1Oc1ccc(-c3c(F)ccnc3F)cc12 [compound 599],IC50,[1]; [5],1 to 5 µM
same,IC50,[2]; [6],0.1 to 1 µM
CC1(COc2ccc3c(c2)[C@@]2(COC(N)=N2)c2cc(-c4cccc(F)c4)cnc2O3)COC1 [compound 774],IC50,[1]; read-out: HEK cell assay,< 0.1 µM
same,IC50,[2]; read-out: BACE1 FRET assay,< 0.1 µM
NC1=N[C@@]2(CO1)c1cc(-c3cccnc3F)ccc1Oc1ccc(C3=CCOCC3)nc12 [compound 400],IC50,[1]; [7],< 0.1 µM
same,IC50,[2]; [8],< 0.1 µM
"COc1ccc2c(c1)C1(COC(N)=N1)c1cc(-c3ccccc3C)ccc1O2 (stereo not drawn) [Example 32, 2′-methoxy-7′-(2-methylphenyl)spiro[1,3-oxazole-4,9′-xanthen]-2-amine]",IC50,[1]; [9],1 to 5 µM
same,IC50,[2]; [10],> 5 µM
COc1ncc(-c2ccc3c(c2)[C@@]2(COC(N)=N2)c2cc(OCC(C)(C)C)ccc2O3)cn1 [compound 977],IC50,[1]; read-out: HEK cell assay,1 to 5 µM
same,IC50,[2]; read-out: BACE1 FRET assay,0.1 to 1 µM
NC1=N[C@@]2(CO1)c1cc(-c3cccnc3)ccc1Oc1cnc(/C=C/C3CC3)cc12 [compound 728],IC50,[1]; read-out: HEK cell assay,< 0.1 µM
same,IC50,[2]; read-out: BACE1 FRET assay,< 0.1 µM
COc1ncccc1-c1ccc2c(c1)[C@@]1(COC(N)=N1)c1cc(C#CC(C)(C)OC)cnc1O2 [compound 806],IC50,[1]; [5],< 0.1 µM
same,IC50,[2]; [6],< 0.1 µM
NC1=NC2(CO1)c1cc(-c3ccccc3)ccc1Oc1ccc(-c3ccccc3)cc12 [compound 532],IC50,[1]; [5],0.1 to 1 µM
same,IC50,[2]; [6],< 0.1 µM
Cc1ccc(-n2ccc3c(c2=O)[C@@]2(COC(N)=N2)c2cc(-c4cccnc4)ccc2O3)cc1 [compound 566],IC50,[1]; [5],0.1 to 1 µM
same,IC50,[2]; [6],0.1 to 1 µM
NC1=N[C@]2(CO1)c1cc(-c3cccnc3)ccc1Oc1ncccc12 [compound 635],IC50,[1]; [5],0.1 to 1 µM
same,IC50,[2]; [6],0.1 to 1 µM
COC(C)(C)C#Cc1cnc2c(c1)[C@@]1(COC(N)=N1)c1cc(-c3cncc(F)c3)ccc1O2 [compound 699],IC50,[1]; read-out: HEK cell assay,1 to 5 µM
same,IC50,[2]; read-out: BACE1 FRET assay,0.1 to 1 µM
NC1=N[C@@]2(CO1)c1cc(-c3cc(F)ccc3F)ccc1Oc1ncc(N3C[C@@H]4C[C@H]3CO4)cc12 [compound 453],IC50,[1]; [11],< 0.1 µM
same,IC50,[2]; read-out: BACE1 FRET assay,< 0.1 µM
C[C@@H]1CN(c2cc(F)c3c(c2)[C@]2(COC(N)=N2)c2cc(-c4cncnc4)ccc2O3)C[C@H](C)O1 [compound 501],IC50,[1]; [11],< 0.1 µM
same,IC50,[2]; read-out: BACE1 FRET assay,< 0.1 µM
NC1=N[C@]2(CO1)c1cc(CCC3(O)CCC3)ccc1Oc1ccc(-c3cncnc3)cc12 [compound 797],IC50,[1]; [5],< 0.1 µM
same,IC50,[2]; [6],< 0.1 µM
CC(C)(C)CCOc1nccc2c1[C@@]1(COC(N)=N1)c1cc(-c3cncnc3)ccc1O2 [compound 985],IC50,[1]; read-out: HEK cell assay,> 5 µM
same,IC50,[2]; read-out: BACE1 FRET assay,0.1 to 1 µM
NC1=N[C@@]2(CO1)c1ccccc1Oc1ccc(-c3cccnc3F)cc12 [compound 641],IC50,[1]; [5],1 to 5 µM
same,IC50,[2]; [6],0.1 to 1 µM
CC1(C)CN(c2cc(F)c3c(c2)[C@]2(COC(N)=N2)c2cc(-c4cncnc4)ccc2O3)CCO1 [compound 505],IC50,[1]; [11],< 0.1 µM
same,IC50,[2]; read-out: BACE1 FRET assay,< 0.1 µM
CC(C)(C)COc1ccc2c(c1)[C@]1(COC(N)=N1)c1cc(-c3cncnc3)cc(F)c1O2 [155b],IC50,[1]; [3],0.1 to 1 µM
same,IC50,[2]; [4],< 0.1 µM
N#Cc1ccc(-c2ccc3c(c2)[C@@]2(COC(N)=N2)c2cc(-c4cccnc4)ccc2O3)cn1 [compound 683],IC50,[1]; read-out: HEK cell assay,< 0.1 µM
same,IC50,[2]; read-out: BACE1 FRET assay,< 0.1 µM
COC1CCN(c2ccc3c(c2)[C@]2(COC(N)=N2)c2cc(-c4cccnc4)ccc2O3)CC1 [compound 464],IC50,[1]; [11],< 0.1 µM
same,IC50,[2]; read-out: BACE1 FRET assay,< 0.1 µM
NC1=N[C@@]2(CO1)c1cc(-c3cccc(F)c3)ccc1Oc1cnc(C3=CCOCC3)cc12 [compound 485],IC50,[1]; [11],< 0.1 µM
same,IC50,[2]; read-out: BACE1 FRET assay,< 0.1 µM
CC(=O)COc1ccc2c(c1)[C@]1(COC(N)=N1)c1cc(C#CC3CC3)ccc1O2 [compound 200],IC50,[1]; [3],0.1 to 1 µM
same,IC50,[2]; [4],0.1 to 1 µM
NC1=N[C@@]2(CO1)c1cc(-c3cccnc3F)ccc1Oc1ccc(Cl)nc12 [compound 392],IC50,[1]; [7],0.1 to 1 µM
same,IC50,[2]; [8],0.1 to 1 µM
CC1(COc2ccc3c(c2)[C@]2(COC(N)=N2)c2cc(Br)cnc2O3)COC1 [compound 164],IC50,[1]; [3],1 to 5 µM
same,IC50,[2]; [4],0.1 to 1 µM
COC(C)(C)COc1ccc2c(c1)[C@]1(COC(N)=N1)c1cc(C#CC3CC3)ccc1O2 [compound 982],IC50,[1]; read-out: HEK cell assay,0.1 to 1 µM
same,IC50,[2]; read-out: BACE1 FRET assay,< 0.1 µM
"COc1ccc(F)c(-c2ccc3c(c2)C2(COC(N)=N2)c2cc(OC)ccc2O3)c1 (stereo not drawn) [Example 15, 2′-(2-fluoro-5-methoxyphenyl)-7′-methoxyspiro[1,3-oxazole-4,9′-xanthen]-2-amine]",IC50,[1]; [9],> 5 µM
same,IC50,[2]; [10],1 to 5 µM
NC1=N[C@@]2(CO1)c1cc(-c3cccnc3)ccc1Oc1cnc(CCC3CC3)cc12 [compound 695],IC50,[1]; read-out: HEK cell assay,0.1 to 1 µM
same,IC50,[2]; read-out: BACE1 FRET assay,< 0.1 µM
COc1ccc(-c2ccc3c(c2)[C@]2(COC(N)=N2)c2cc(-c4cncnc4)ccc2O3)cc1 [compound 892],IC50,[1]; [5],< 0.1 µM
same,IC50,[2]; [6],< 0.1 µM
"C[C@@H]1OC(N)=N[C@]12c1cc(OCC(C)(C)C)ccc1Oc1ccc(-c3cncnc3)cc12 [126a, (4R,5S)-2′-(2,2-dimethylpropoxy)-5-methyl-7′-(5-pyrimidinyl)spiro[1,3-oxazole-4,9′-xanthen]-2-amine]",IC50,[1]; [3],1 to 5 µM
same,IC50,[2]; [4],0.1 to 1 µM
Cc1cncc(-c2ccc3c(c2)[C@@]2(COC(N)=N2)c2cc(OCC(C)(C)O)ccc2O3)c1 [compound 223],IC50,[1]; [3],< 0.1 µM
same,IC50,[2]; [4],< 0.1 µM
"NC1=N[C@@]2(CO1)c1cc(-c3cncc(F)c3)ccc1Oc1cnc(C3=CCOCC3)cc12 [compound 368, (5S)-3-(3,6-dihydro-2H-pyran-4-yl)-7-(5-fluoro-3-pyridinyl)spiro[chromeno[2,3-c]pyridine-5,4′-[1,3]oxazol]-2′-amine]",IC50,[1]; [7],< 0.1 µM
same,IC50,[2]; [8],< 0.1 µM
"COC(C)(C)CCc1ccc2c(c1)C1(COC(N)=N1)c1cc(-c3cccnc3)cnc1O2 (racemic) [Example 110, rac-7-(3-methoxy-3-methylbutyl)-3-(3-pyridinyl)spiro[chromeno[2,3-b]pyridine-5,4′-[1,3]oxazol]-2′-amine]",IC50,[1]; [3],0.1 to 1 µM
same,IC50,[2]; [4],< 0.1 µM
"NC1=N[C@@]2(CS1)c1cc(Cl)ccc1Oc1ccc(-c3cncnc3)cc12 [Example 39, (4R)-2′-chloro-7′-(5-pyrimidinyl)spiro[1,3-thiazole-4,9′-xanthen]-2-amine]",IC50,"[1]; Table II, Aβ40, 24 h incubation, read-out: HEK cell assay",> 5 µM
same,IC50,"[2]; Table II, read-out: BACE1 FRET assay",0.1 to 1 µM
CC(C)(C)COc1ccc2c(c1)[C@]1(COC(N)=N1)c1cc(C(=O)NC3CCCC3)ccc1O2 [compound 874],IC50,[1]; [5],1 to 5 µM
same,IC50,[2]; [6],0.1 to 1 µM
NC1=N[C@@]2(CO1)c1cc(-c3cccnc3)ccc1Oc1cnc(N3CCC(=O)CC3)cc12 [compound 442],IC50,[1]; [11],< 0.1 µM
same,IC50,[2]; read-out: BACE1 FRET assay,< 0.1 µM
CC1(C)CN(c2cc3c(cn2)Oc2ccc(-c4cccnc4F)cc2[C@@]32COC(N)=N2)CCO1 [compound 489],IC50,"[1]; HEK cell assay (uM), HEK cells",< 0.1 µM
same,IC50,[2]; BACE1 FRET assay (uM),< 0.1 µM
NC1=N[C@]2(CO1)c1cnccc1Oc1ccc(-c3cccnc3)cc12 [compound 557],IC50,[1]; [5],1 to 5 µM
same,IC50,[2]; [6],> 5 µM
Cn1cnc(-c2ccc3c(c2)[C@]2(COC(N)=N2)c2cc(-c4cccnc4)ccc2O3)c1 [compound 554],IC50,[1]; [5],< 0.1 µM
same,IC50,[2]; [6],0.1 to 1 µM
COc1cnc2c(c1)[C@]1(COC(N)=N1)c1cc(Br)ccc1O2 [compound 542],IC50,[1]; [5],> 5 µM
same,IC50,[2]; [6],1 to 5 µM
"NC1=N[C@@]2(CO1)c1cc(-c3cccc(Cl)c3)ccc1Oc1cnc(C3=CCOCC3)cc12 [compound 427, (5S)-7-(3-chlorophenyl)-3-(3,6-dihydro-2H-pyran-4-yl)spiro[chromeno[2,3-c]pyridine-5,4′-[1,3]oxazol]-2′-amine]",IC50,[1]; [11],< 0.1 µM
same,IC50,[2]; read-out: BACE1 FRET assay,< 0.1 µM
CC(C)(C)C#Cc1ccc2c(c1)[C@@]1(COC(N)=N1)c1cc(-c3cccnc3)cnc1O2 [compound 895],IC50,[1]; [5],< 0.1 µM
same,IC50,[2]; [6],< 0.1 µM
NC1=N[C@@]2(CO1)c1cc(-c3cccnc3)ccc1Oc1ccc(N3CCOCC3)cc12 [compound 764],IC50,[1]; read-out: HEK cell assay,< 0.1 µM
same,IC50,[2]; read-out: BACE1 FRET assay,< 0.1 µM
CC(C)(C)C#Cc1ccc2c(c1)[C@@]1(COC(N)=N1)c1cc(-c3cccnc3)cnc1O2 [compound 160],IC50,[1]; [3],< 0.1 µM
same,IC50,[2]; [4],< 0.1 µM
CC(C)(C)C#Cc1ccc2c(n1)[C@@]1(COC(N)=N1)c1cc(-c3cncnc3)ccc1O2 [compound 528],IC50,[1]; [11],< 0.1 µM
same,IC50,[2]; read-out: BACE1 FRET assay,< 0.1 µM
"NC1=NC2(CO1)c1cc(-c3cccnc3)ccc1Oc1ncc(-c3cccnc3)cc12 (stereo not drawn) [Example 113, 3,7-di-3-pyridinylspiro[chromeno[2,3-b]pyridine-5,4′-[1,3]oxazol]-2′-amine]",IC50,[1]; [3],< 0.1 µM
same,IC50,[2]; [4],< 0.1 µM
CCOc1ccc(-c2cnc3c(c2)[C@]2(COC(N)=N2)c2cc(OCC(C)(C)C)ccc2O3)cn1 [compound 804],IC50,[1]; [5],< 0.1 µM
same,IC50,[2]; [6],< 0.1 µM
CC(C)(F)COc1ccc2c(c1)[C@]1(COC(N)=N1)c1cc(-c3cncnc3)cnc1O2 [compound 176],IC50,[1]; [3],0.1 to 1 µM
same,IC50,[2]; [4],< 0.1 µM
NC1=N[C@@]2(CO1)c1cc(-c3cc(Cl)ccc3F)ccc1Oc1cnc(-c3cccnc3)cc12 [compound 367],IC50,[1]; [7],< 0.1 µM
same,IC50,[2]; [8],< 0.1 µM
NC1=N[C@]2(CO1)c1cc(Br)ccc1Oc1ccc(-c3cncnc3)cc12 [compound 686],IC50,[1]; read-out: HEK cell assay,0.1 to 1 µM
same,IC50,[2]; read-out: BACE1 FRET assay,0.1 to 1 µM
Cc1cccc(-c2ccc3c(c2)[C@]2(COC(N)=N2)c2cccnc2O3)c1 [compound 596],IC50,[1]; [5],1 to 5 µM
same,IC50,[2]; [6],0.1 to 1 µM
